The subject of the assay is myoglobin in ground beef. Nature of the assay: Myoglobin states (DMb, OMb, MMb) by reflectance spectra of treated ground beef, high oxygen packaging (Example 5). More on the design: species or system cattle. As to conditions: for DMb / MMb / OMb: citrate High level, high oxygen, adjusted mean ± standard error. The source says:
Beef M. semimembranosus (M.S.) and beef fat tissue were collected four days post mortem (Fatland A/S, Oslo, Norway). The packaging day is defined as day zero, however, the tissues were 4 days post mortem on packing day. A piece of meat from proximal end was cut from each muscle in order to measure oxygen consumption, pH and surface colour. Fat tissue from pigs fed rapeseed and vitamin E to enhance the content of polyunsaturated fatty acids were from HKScan (Ruokatalo, Finland). The fat tissue was transported vacuum-packaged and frozen. Samples of minced fat tissue were removed for fatty acid analysis.
The beef muscles were cut into pieces of approximately 10×5 cm and mixed to 14% w/w fat by using the fat tissues. Beef fat and pork fat tissues were ground twice with either raw beef from four young (16-19 months) or four old (46-81 months) cattle. The meat had pH of 5.65 and was ground with a Seydelmann ME-130 (Seydelmann, Stuttgart, Germany) grinder through a plate with 3 mm openings. The ground meat was blended manually with solutions (all at pH 5.8) with various TCA and glycolytic ingredients (see below).
To maintain pH at 5.8 the solutions were prepared by mixing the acid form and the corresponding sodium salt of these chemicals.
40 g of 0.1 M or 0.05 M solutions were added to ground beef-fat mixture (360 g) to a total weight of 400 g. The solution was quickly and properly stirred into the minced meat and the blended system was subsequently packaged. […] Two reference samples with 40 ml of distilled water added to 360 gram of ground beef were also prepared each of the four production day, i.e. altogether 8 references were prepared. The samples were packaged in either low or high oxygen atmosphere.
The ground beef was packaged in black amorphous polyethylene terephthalate (APET) trays that were sealed with ethylene vinyl alcohol (EVOH) top films. The trays and films (Wipak Multipet and Wipak Biaxer, both Wipak, Nastola, Finland) had oxygen transmission rates of 7 and 5 cm^3/m^2/24 h at 23° C. at 50% relative humidity. Packaging was carried out within 1 hour after grinding. The samples were stored in darkness at 4° C. for 8 days in a high-oxygen atmosphere (75% oxygen and 25% CO2) and for 13 days in a low-oxygen atmosphere (60% CO2 and 40% N2). These food grade gas mixtures were supplied by AGA (Oslo, Norway).
Samples were scanned, […], with a Foss NIRSystems OptiProbe™ 6500 Analyzer (Foss NIRSystems Inc., Maryland, USA) without opening of the package. The package was turned upside-down before measurements so that the meat would fall on the packaging film. The samples were scanned with three random placements of the probe on the package surface in order to increase the scanning area and reduce the measurement errors. Thirty-two scans for both reference and samples were acquired and averaged on each measured area. All measurements were performed at room temperature (approx. 20° C.) according to Khatri, et al. (Meat Sci. (2012) 91(3): 223-231). These spectra were used to predict OMb, MMb and DMb levels. Calibration was performed using comminuted meat with 10% w/w added water.
The colour of the samples packaged in high O2 was measured after 0, 1, 3, 6 and 8, days of storage from packaging day, while low O2 samples were measured at 0 to 13 days of storage using Minolta and reflectance measurements.
The statistical analysis was performed according to the approach described by Langsrud et al. (J. Appl. Statist. (2007) 34:1275-1296) and implemented in the 50-50 MANOVA software (http://www.langsrud.com/stat/program.htm). This program handles mixture designs as generalized categorical variables (generalized ANOVA). When using this method one can always formulate equivalent models that use the individual mixture variables as ordinary (one degree of freedom) regression variables. Then one arbitrary mixture variable has to be omitted (slack variable). […]

As to `O=C(O)CC(O)(CC(=O)O)C(=O)O` [Citrate], the DMb runs as follows: (Day 1) 0.0 ± 0.0 %; (Day 3) 0.0 ± 0.0%; (Day 6) 0.5 ± 0.3%; (Day 8) 0.6 ± 0.2%. The compound also returned an MMb (Day 1) of 6.6 ± 0.3%, an MMb (Day 3) of 10.5 ± 0.6%, an MMb (Day 6) of 20.4 ± 0.6% and an MMb (Day 8) of 26.7 ± 0.7%. In addition, the OMb by setting is: (Day 1) 93.4 ± 0.6%; (Day 3) 89.5 ± 0.6%; (Day 6) 79.1 ± 0.7%; (Day 8) 72.7 ± 0.8%. The “effect on myoglobin states (DMb, OMb, MMb), in words” value (high oxygen packaging) is given as “nominal higher values for OMb”.

The values are drawn from patent publication US20140227408A1, “MEAT TREATMENT AND PRESERVATION METHOD” (RED MEAT AS, priority 2011, published 2014).
